The subject of one test is SW620 PERK. In words: SW620 PERK assay. Type of test: cell-based.
A further test relates to SW620 cells. Put plainly: SW620 3D proliferation assay (CellTiter-Glo). Format: cell-based. To be noted: SW620, 3D culture, 7 days, read-out: SW620 CTG IC50. As for the experimental part: (§1) SW620 and HPAC 3D proliferation assays.
(§2) Compound potencies were assessed in proliferation assays conducted with SW620 and HPAC cell lines grown in 3D cultures. Cells were seeded into 96- or 384-well ultra-low attachment plates at 3000 or 1000 cells/well, respectively, in culture medium (RPMI-1640, 10% FBS, 2 mM L-glutamine). The plated cells were centrifuged briefly, allowed to rest for 30 minutes under ambient conditions, and cultured overnight at 37° C./5% CO2 to initiate the formation of spheroids. Compound dilutions were prepared across a range of concentrations in DMSO and added to the appropriate wells of the assay plates with a 333-fold dilution into the culture medium. The plates were further incubated for 7 days. The quantity of viable cells was assessed using CellTiter-Glo 3D Cell Viability Assay (Promega). The detection reagent penetrates the spheroids and lyses the cells. The released ATP that was detected with luciferase and a luciferase substrate to generate a luminescent readout. […] The data points were fit to a 4-parameter logistic equation to determine IC50 values.

The target of test [1] is recombinant human KRAS wild type (SOS1-mediated nucleotide exchange) (Homo sapiens (Human), UniProt P01116). In words: KRAS biochemical assay, BODIPY-GDP exchange TR-FRET (WT-GDP HTRF). As for the experimental part:
[Worded in the source for another variant; this variant is reported under the same test.] KRAS Biochemical Assay—BODIPY-GDP Exchange TR-FRET.
Biochemical compound potencies were assessed by evaluating inhibition of SOS1-mediated nucleotide exchange in KRAS G12D. The SOS1-promoted exchange of fluorescently-labeled GDP (BOPIDY-GDP) was monitored by time-resolved fluorescence resonance energy transfer (TR-FRET). Compounds solubilized in DMSO were dispensed as concentration series into 384-well white assay plates. […] The reaction was initiated with the addition of 5 μL of 3 nM recombinant human SOS1 and 300 nM BODIPY-GDP in assay buffer. After a 60-minute incubation, the fluorescence was measured with excitation at 337 nm and emission at 490 and 520 nm. The TR-FRET ratio was determined as the fluorescence at 520 nm divided by the fluorescence at 490 nm multiplied by 10,000. […] The normalized TR-FRET results were plotted against compound concentration, and the data fit to a 4-parameter Hill equation to determine the IC50 values.
A general note: Time-resolved FRET reads energy transfer from a long-lived donor to a nearby acceptor.

The next test concerns HPAC cells. Put plainly: HPAC 3D proliferation assay (CellTiter-Glo). Type of test: cell-based. To be noted: 3D culture, 7 days, read-out: HPAC CTG IC50. How it is done:
as §1, §2
(In general: ATP-based viability assays read luminescence as a measure of living cells.)

The subject of a further test is H1975 cells. In words: H1975 CTG proliferation assay. Format: cell-based.
The target in test [2] is recombinant human mutant KRas G12V (SOS1-mediated nucleotide exchange) (Homo sapiens (Human), UniProt P01116, G12V). Put plainly: KRAS biochemical assay, BODIPY-GDP exchange TR-FRET (G12V-GDP HTRF).
recombinant human mutant KRas G12V (SOS1-mediated nucleotide exchange), sequence (P01116-2 other isoform, or with tags, fused parts or gaps G12V): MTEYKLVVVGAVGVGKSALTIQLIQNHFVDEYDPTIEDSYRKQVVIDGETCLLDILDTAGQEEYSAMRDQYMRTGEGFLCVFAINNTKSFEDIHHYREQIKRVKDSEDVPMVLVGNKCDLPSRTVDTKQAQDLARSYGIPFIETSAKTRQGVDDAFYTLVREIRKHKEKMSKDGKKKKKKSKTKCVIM
The mark [3] stands for this setting: Homo sapiens, SW-620, SW620, PERK.
Where [4] appears, read: Homo sapiens, NCI-H1975, H1975, CTG.

Like-named read-outs stand apart in the source and are kept apart here.

One may read the IC50 as the midpoint of a concentration-inhibition curve.

recombinant human KRAS wild type (SOS1-mediated nucleotide exchange), sequence (P01116-2 other isoform, or with tags, fused parts or gaps): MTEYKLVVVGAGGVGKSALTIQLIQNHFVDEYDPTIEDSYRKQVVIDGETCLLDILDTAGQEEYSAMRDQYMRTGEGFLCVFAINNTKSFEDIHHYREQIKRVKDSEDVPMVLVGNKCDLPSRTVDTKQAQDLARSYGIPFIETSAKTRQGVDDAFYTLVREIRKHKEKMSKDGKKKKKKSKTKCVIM

Regarding `C#Cc1cccc2cc(N)cc(-c3nc4c5c(nc(OC[C@@]67CCCN6C[C@H](F)C7)nc5c3F)N([C@H](C)c3nccnc3N)CCO4)c12` [Example 29, 3-((R)-1-(5-(3-Amino-8-ethynyinaphthalen-1-yl)-4-fluoro-2-(((2R,7aS)-2-fluorotetrahydro-1H-pyrrolizin-7a(5H)-yl)methoxy)-8,9-dihydro-10H-7-oxa-1,3,6,10-tetraazacyclohepta[de]naphthalen-10-yl)ethyl)pyrazin-2-amine], the IC50 in the test on SW620 PERK (setting [3]) came out at 0.66 nM; in the test with SW620 cells (Homo sapiens, SW-620, 168 h), 1.64 nM; in test [1], 0.15 nM; with HPAC cells (Homo sapiens, 168 h) it was 4.51 nM; with H1975 cells (setting [4]) it was 2.59 nM; in test [2], 0.09 nM.

Turning to `Cc1c(F)c(N)c(F)c(-c2nc3c4c(nc(OC[C@@]56CCCN5C[C@H](F)C6)nc4c2Cl)N([C@H](C)c2cccnc2N)CCO3)c1C(F)(F)F` (single isomer, unassigned) [Example 629b], the IC50 in the test with SW620 PERK (setting [3]) is 105 nM; with SW620 cells (Homo sapiens, SW-620, 168 h), 74.2 nM; in test [1] it was 12.3 nM; with HPAC cells (Homo sapiens, 168 h), 682 nM; with H1975 cells (setting [4]), 426 nM; in test [2], 4.8 nM.

For the compound `Cc1nc(N)c(Cl)c(-c2nc3c4c(nc(OC[C@@]56CCCN5C[C@H](F)C6)nc4c2F)N([C@H](C)c2cccnc2N)CCO3)c1C(F)(F)F` (single isomer, unassigned) [Example 601a], the IC50 amounted to 6.14 nM in the test with SW620 cells (Homo sapiens, SW-620, 168 h); 0.255 nM in test [1]; 47.6 nM in the test with H1975 cells (setting [4]); 0.07 nM in test [2].

Turning to `Cc1nc(N)cc(-c2nc3c4c(nc(OC[C@@H]5CCCN5C)nc4c2F)N([C@H](C)c2cccnc2N)CCO3)c1C(F)(F)F` [Example 627, 4-(10-((R)-1-(2-aminopyridin-3-yl)ethyl)-4-fluoro-2-(((S)-1-methylpyrrolidin-2-yl)methoxy)-9,10-dihydro-8H-7-oxa-1,3,6,10-tetraazacyclohepta[de]naphthalen-5-yl)-6-methyl-5-(trifluoromethyl)pyridin-2-amine], the IC50 in the test with SW620 PERK (setting [3]) was found to be 52.6 nM; in the test with SW620 cells (Homo sapiens, SW-620, 168 h), 193 nM; in test [1] it was 4.67 nM; with HPAC cells (Homo sapiens, 168 h), 1360 nM; in the test with H1975 cells (setting [4]), 854 nM; in test [2], 0.44 nM.

Regarding `Cc1nc(N)cc(-c2nc3c4c(nc(OC[C@@]56CCN5C[C@]5(CC5(F)F)C6)nc4c2F)N([C@H](C)c2cncnc2N)CCO3)c1C(F)(F)F` [Example 606], the IC50 with SW620 PERK (setting [3]) was 855 nM; in the test on SW620 cells (Homo sapiens, SW-620, 168 h) it was 1520 nM; in test [1], 0.808 nM; in the test with HPAC cells (Homo sapiens, 168 h) it was greater than 2000 nM; with H1975 cells (setting [4]), 374 nM; in test [2], 0.2 nM.

Consider `Cc1cc(N)cc(-c2nc3c4c(nc(OC[C@@]56CCCN5C[C@H](F)C6)nc4c2F)N([C@H](C)c2cccnc2N)CCO3)c1C(F)(F)F` [Example 3, 3-((R)-1-(5-(5-amino-3-methyl-2-(trifluoromethyl)phenyl)-4-fluoro-2-(((2R,7aS)-2-fluorotetrahydro-1H-pyrrolizin-7a(5H)-yl)methoxy)-8,9-dihydro-10H-7-oxa-1,3,6,10-tetraazacyclohepta[de]naphthalen-10-yl)ethyl)pyridin-2-amine], for which the IC50 in the test with SW620 PERK (setting [3]) came out at 0.59 nM; in the test on SW620 cells (Homo sapiens, SW-620, 168 h), 1.15 nM; in test [1] it was 0.104 nM; in the test with HPAC cells (Homo sapiens, 168 h) it was 8.79 nM; in the test on H1975 cells (setting [4]), 9.54 nM; in test [2] it was 0.08 nM.

Consider `Cc1c(F)c(N)nc(-c2nc3c4c(nc(OC[C@@]56CCCN5C[C@H](F)C6)nc4c2F)N([C@H](C)c2cc(F)cnc2N)CCO3)c1C(F)(F)F` [Example 631, 6-(10-((R)-1-(2-amino-5-fluoropyridin-3-yl)ethyl)-4-fluoro-2-(((2R,7aS)-2-fluorotetrahydro-1H-pyrrolizin-7a(5H)-yl)methoxy)-9,10-dihydro-8H-7-oxa-1,3,6,10-tetraazacyclohepta[de]naphthalen-5-yl)-3-fluoro-4-methyl-5-(trifluoromethyl)pyridin-2-amine], for which the IC50 in the test with SW620 PERK (setting [3]) worked out at 16.5 nM; with SW620 cells (Homo sapiens, SW-620, 168 h) it was 47.3 nM; in test [1], 0.741 nM; in the test with HPAC cells (Homo sapiens, 168 h) it was 110 nM; in the test on H1975 cells (setting [4]), 113 nM; in test [2] it was 0.21 nM.

Consider `Cc1nc(N)cc(-c2nc3c4c(nc(OC[C@@]56CCN5C[C@]5(CC5(F)F)C6)nc4c2F)N([C@H](C)c2cccnc2N)CCO3)c1C(F)(F)F` [Example 605], for which the IC50 with SW620 PERK (setting [3]) was 11.9 nM; in the test with SW620 cells (Homo sapiens, SW-620, 168 h), 11.3 nM; in test [1], 0.19 nM; in the test on HPAC cells (Homo sapiens, 168 h), 94 nM; with H1975 cells (setting [4]), 4 nM; in test [2] it was 0.14 nM.

In the case of `C#Cc1cccc2nc(N)cc(-c3nc4c5c(nc(OC[C@@]67CCCN6C[C@H](F)C7)nc5c3F)N([C@H](C)c3cccnc3N)CCO4)c12` [Example 30, 4-(10-((R)-1-(2-aminopyridin-3-yl)ethyl)-4-fluoro-2-(((2R,7aS)-2-fluorotetrahydro-1H-pyrrolizin-7a(5H)-yl)methoxy)-9,10-dihydro-8H-7-oxa-1,3,6,10-tetraazacyclohepta[de]naphthalen-5-yl)-5-ethynylquinolin-2-amine], the IC50 amounted to 2.65 nM with SW620 PERK (setting [3]); 2.67 nM in the test with SW620 cells (Homo sapiens, SW-620, 168 h); 0.114 nM in test [1]; 15.8 nM in the test with HPAC cells (Homo sapiens, 168 h); 2.59 nM in the test on H1975 cells (setting [4]); 0.06 nM in test [2].

Turning to `Cc1c(F)c(N)nc(-c2nc3c4c(nc(OC[C@@]56CCCN5C[C@H](F)C6)nc4c2F)N([C@H](C)c2nccnc2N)CCO3)c1C(F)(F)F` [Example 630, 3-((R)-1-(5-(6-amino-5-fluoro-4-methyl-3-(trifluoromethyl)pyridin-2-yl)-4-fluoro-2-(((2R,7aS)-2-fluorotetrahydro-1H-pyrrolizin-7a(5H)-yl)methoxy)-8,9-dihydro-10H-7-oxa-1,3,6,10-tetraazacyclohepta[de]naphthalen-10-yl)ethyl)pyrazin-2-amine], the IC50 was determined as 21.2 nM in the test with SW620 PERK (setting [3]); 28.8 nM in the test with SW620 cells (Homo sapiens, SW-620, 168 h); 2 nM in test [1]; 208 nM in the test with HPAC cells (Homo sapiens, 168 h); 134 nM with H1975 cells (setting [4]); 0.32 nM in test [2].

Take `Cc1c(F)c(N)nc(-c2nc3c4c(nc(OC[C@@]56CCCN5C[C@]5(CC5(F)F)C6)nc4c2F)N([C@H](C)c2nccnc2N)CCO3)c1C(F)(F)F` [Example 632]: the IC50 in the test with SW620 PERK (setting [3]) amounted to 6.08 nM; with SW620 cells (Homo sapiens, SW-620, 168 h), 15.5 nM; in test [1] it was 0.379 nM; with HPAC cells (Homo sapiens, 168 h) it was 83.4 nM; in the test with H1975 cells (setting [4]), 83.4 nM; in test [2], 0.089 nM.

Turning to `Cc1cc(N)c(Cl)c(-c2nc3c4c(nc(OC[C@@]56CCCN5C[C@H](F)C6)nc4c2F)N([C@H](C)c2cccnc2N)CCO3)c1C(F)(F)F` (single isomer, unassigned) [Example 21a], the IC50 stood at 33.1 nM in the test on SW620 PERK (SW620, PERK); 6.87 nM in the test on SW620 cells; 2.93 nM in test [1]; 103 nM in the test on HPAC cells; 180 nM in the test on H1975 cells (H1975, CTG); 1.9 nM in test [2].

On to `Cc1c(F)c(N)cc(-c2nc3c4c(nc(OC[C@@]56CCCN5C[C@]5(CC5(F)F)C6)nc4c2F)N([C@H](C)c2cccnc2N)CCO3)c1C(F)(F)F` [Example 31, 3-((R)-1-(5-(5-amino-4-fluoro-3-methyl-2-(trifluoromethyl)phenyl)-2-(((1R,7a'S)-2,2-difluorodihydro-1′H,3′H-spiro[cyclopropane-1,2′-pyrrolizin]-7a′(5′H)-yl)methoxy)-4-fluoro-8,9-dihydro-10H-7-oxa-1,3,6,10-tetraazacyclohepta[de]naphthalen-10-yl)ethyl)pyridin-2-amine], for which the IC50 in the test with SW620 PERK (setting [3]) was 26.8 nM; in the test on SW620 cells (Homo sapiens, SW-620, 168 h), 16.2 nM; in test [1] it was 0.419 nM; in the test with HPAC cells (Homo sapiens, 168 h) it was 156 nM; with H1975 cells (setting [4]) it was 17.9 nM; in test [2] it was 0.27 nM.

As to `C[C@H](c1cccnc1N)N1CCOc2nc(-c3cncc4cccc(Cl)c34)c(F)c3nc(OC[C@@]45CCCN4C[C@H](F)C5)nc1c23` [Example 19, 3-((R)-1-(5-(5-chloroisoquinolin-4-yl)-4-fluoro-2-(((2R,7aS)-2-fluorotetrahydro-1H-pyrrolizin-7a(5H)-yl)methoxy)-8,9-dihydro-10H-7-oxa-1,3,6,10-tetraazacyclohepta[de]naphthalen-10-yl)ethyl)pyridin-2-amine], the half-inhibitory concentration (IC50) stood at 112 nM in the test with SW620 PERK (setting [3]), 6.93 nM in test [1] and 0.85 nM in test [2].
